In ChEMBL document CHEMBL1131200, “Bis-quinolinium cyclophanes: 6,10-diaza-3(1,3),8(1,4)-dibenzena-1,5(1,4)- diquinolinacyclodecaphane (UCL 1684), the first nanomolar, non-peptidic blocker of the apamin-sensitive Ca(2+)-activated K+ channel” (J Med Chem, 1998):

Experiments:
Rattus norvegicus [1] = species on record: Rattus norvegicus; assay: The ratio of the conc of compound to dequalinium to cause 50% inhibition of the after hyperpolarization (AHP) in cultured rat sympathetic neurones; type: functional, Sympathetic neuron
Rattus norvegicus [2] = species on record: Rattus norvegicus; assay: Compound was tested for SKCa blocking action by measuring its ability to inhibit after hyperpolarization (AHP) in cultured rat sympathetic neurones; type: functional; details: Sympathetic neuron

c1ccc2c(c1)c1cc[n+]2Cc2ccc(cc2)C[n+]2ccc(c3ccccc32)NCc2ccc(cc2)CN1
EMR (Rattus norvegicus [1]): 0.05 | IC50 (Rattus norvegicus [2]): 28 nM

c1ccc2c(c1)c1cc[n+]2Cc2ccc(cc2)-c2ccc(cc2)C[n+]2ccc(c3ccccc32)NCc2ccc(cc2)Cc2ccc(cc2)CN1
EMR (Rattus norvegicus [1]): 0.26 | IC50 (Rattus norvegicus [2]): 150 nM

c1ccc2c(c1)c1cc[n+]2Cc2ccc(cc2)Cc2ccc(cc2)C[n+]2ccc(c3ccccc32)NCc2ccc(cc2)-c2ccc(cc2)CN1
EMR (Rattus norvegicus [1]): 0.8 | IC50 (Rattus norvegicus [2]): 280 nM

c1cc2cc(c1)CNc1cc[n+](c3ccccc13)Cc1ccc(cc1)C[n+]1ccc(c3ccccc31)NC2
EMR (Rattus norvegicus [1]): 0.18 | IC50 (Rattus norvegicus [2]): 70 nM

c1ccc2c(c1)c1cc[n+]2Cc2ccc(cc2)Cc2ccc(cc2)C[n+]2ccc(c3ccccc32)NCc2ccc(cc2)Cc2ccc(cc2)CN1
EMR (Rattus norvegicus [1]): 0.31 | IC50 (Rattus norvegicus [2]): 260 nM

c1cc2cc(c1)CNc1cc[n+](c3ccccc13)Cc1cccc(c1)C[n+]1ccc(c3ccccc31)NC2
EMR (Rattus norvegicus [1]): 0.22 | IC50 (Rattus norvegicus [2]): 130 nM

c1cc2cc(c1)C[n+]1ccc(c3ccccc31)NCc1ccc(cc1)CNc1cc[n+](c3ccccc13)C2
EMR (Rattus norvegicus [1]): 0.01 | IC50 (Rattus norvegicus [2]): 3 nM

Cc1cc(N)c2ccccc2[n+]1CCCCCCCCCC[n+]1c(C)cc(N)c2ccccc21.[Cl-].[Cl-] [DEQUALINIUM CHLORIDE]
EMR (Rattus norvegicus [1]): 1 | IC50 (Rattus norvegicus [2]): 570 nM
